Test results published in article PMC5799168 (Scientific Reports, 2018).
Where two headings read alike, the source gives them in different places.

B1: R479I: recombinant Ndi1 mutant R479I (protein, UniProt P32340 27-513, looked up, variant R479I)
Rotenone-insensitive …: STGVENSGAGPTSFKTMKVIDPQHSDKPNVLILGSGWGAISFLKHIDTKKYNVSIISPRSYFLFTPLLPSAPVGTVDEKSIIEPIVNFALKKKGNVTYYEAEATSINPDRNTVTIKSLSAVSQLYQPENHLGLHQAEPAEIKYDYLISAVGAEPNTFGIPGVTDYGHFLKEIPNSLEIRRTFAANLEKANLLPKGDPERRRLLSIVVVGGGPTGVEAAGELQDYVHQDLRKFLPALAEEVQIHLVEALPIVLNMFEKKLSSYAQSHLENTSIKVHLRTAVAKVEEKQLLAKTKHEDGKITEETIPYGTLIWATGNKARPVITDLFKKIPEQNSSKRGLAVNDFLQVKGSNNIFAIGDNAFAGLPPTAQVAHQEAEYLAKNFDKMAQIPNFQKNLSSRKDKIDLLFEENNFKPFKYNDLGALAYLGSERAIATIRSGKRTFYTGGGLMTFYLWIILYLSMILSARSRLKVFFDWIKLAFFKRDFFKGL
B2: Wild type: wild-type recombinant Saccharomyces cerevisiae Ndi1 (NADH dehydrogenase) (protein, UniProt P32340 27-513, looked up)
Rotenone-insensitive …: STGVENSGAGPTSFKTMKVIDPQHSDKPNVLILGSGWGAISFLKHIDTKKYNVSIISPRSYFLFTPLLPSAPVGTVDEKSIIEPIVNFALKKKGNVTYYEAEATSINPDRNTVTIKSLSAVSQLYQPENHLGLHQAEPAEIKYDYLISAVGAEPNTFGIPGVTDYGHFLKEIPNSLEIRRTFAANLEKANLLPKGDPERRRLLSIVVVGGGPTGVEAAGELQDYVHQDLRKFLPALAEEVQIHLVEALPIVLNMFEKKLSSYAQSHLENTSIKVHLRTAVAKVEEKQLLAKTKHEDGKITEETIPYGTLIWATGNKARPVITDLFKKIPEQNSSKRGLAVNDFLQVKGSNNIFAIGDNAFAGLPPTAQVAHQEAEYLAKNFDKMAQIPNFQKNLSSRKDKIDLLFEENNFKPFKYNDLGALAYLGSERAIATIRSGKRTFYTGGGLMTFYLWRILYLSMILSARSRLKVFFDWIKLAFFKRDFFKGL
B3: L444N: recombinant Ndi1 mutant L444N (protein, UniProt P32340 27-513, looked up, variant L444N)
Rotenone-insensitive …: STGVENSGAGPTSFKTMKVIDPQHSDKPNVLILGSGWGAISFLKHIDTKKYNVSIISPRSYFLFTPLLPSAPVGTVDEKSIIEPIVNFALKKKGNVTYYEAEATSINPDRNTVTIKSLSAVSQLYQPENHLGLHQAEPAEIKYDYLISAVGAEPNTFGIPGVTDYGHFLKEIPNSLEIRRTFAANLEKANLLPKGDPERRRLLSIVVVGGGPTGVEAAGELQDYVHQDLRKFLPALAEEVQIHLVEALPIVLNMFEKKLSSYAQSHLENTSIKVHLRTAVAKVEEKQLLAKTKHEDGKITEETIPYGTLIWATGNKARPVITDLFKKIPEQNSSKRGLAVNDFLQVKGSNNIFAIGDNAFAGLPPTAQVAHQEAEYLAKNFDKMAQIPNFQKNLSSRKDKIDLLFEENNFKPFKYNDNGALAYLGSERAIATIRSGKRTFYTGGGLMTFYLWRILYLSMILSARSRLKVFFDWIKLAFFKRDFFKGL
B4: I459N: recombinant Ndi1 mutant I459N (protein, UniProt P32340 27-513, looked up, variant I459N)
Rotenone-insensitive …: STGVENSGAGPTSFKTMKVIDPQHSDKPNVLILGSGWGAISFLKHIDTKKYNVSIISPRSYFLFTPLLPSAPVGTVDEKSIIEPIVNFALKKKGNVTYYEAEATSINPDRNTVTIKSLSAVSQLYQPENHLGLHQAEPAEIKYDYLISAVGAEPNTFGIPGVTDYGHFLKEIPNSLEIRRTFAANLEKANLLPKGDPERRRLLSIVVVGGGPTGVEAAGELQDYVHQDLRKFLPALAEEVQIHLVEALPIVLNMFEKKLSSYAQSHLENTSIKVHLRTAVAKVEEKQLLAKTKHEDGKITEETIPYGTLIWATGNKARPVITDLFKKIPEQNSSKRGLAVNDFLQVKGSNNIFAIGDNAFAGLPPTAQVAHQEAEYLAKNFDKMAQIPNFQKNLSSRKDKIDLLFEENNFKPFKYNDLGALAYLGSERAIATNRSGKRTFYTGGGLMTFYLWRILYLSMILSARSRLKVFFDWIKLAFFKRDFFKGL

Key:
Ndi1 [1] = molecular target: T1, Ndi1 (Saccharomyces cerevisiae, UniProt P32340); parameters: method as in PMID 17200125; settings: inhibition of Ndi1; cited from earlier work
T1 construct: The mature Ndi1, which lacks a mitochondrial targeting; (His)10; made in house; host or cells: E. coli BL21(DE3)pLysS, plasmid pET16b(NDI1-m)
T1 sequence (P32340 27-513): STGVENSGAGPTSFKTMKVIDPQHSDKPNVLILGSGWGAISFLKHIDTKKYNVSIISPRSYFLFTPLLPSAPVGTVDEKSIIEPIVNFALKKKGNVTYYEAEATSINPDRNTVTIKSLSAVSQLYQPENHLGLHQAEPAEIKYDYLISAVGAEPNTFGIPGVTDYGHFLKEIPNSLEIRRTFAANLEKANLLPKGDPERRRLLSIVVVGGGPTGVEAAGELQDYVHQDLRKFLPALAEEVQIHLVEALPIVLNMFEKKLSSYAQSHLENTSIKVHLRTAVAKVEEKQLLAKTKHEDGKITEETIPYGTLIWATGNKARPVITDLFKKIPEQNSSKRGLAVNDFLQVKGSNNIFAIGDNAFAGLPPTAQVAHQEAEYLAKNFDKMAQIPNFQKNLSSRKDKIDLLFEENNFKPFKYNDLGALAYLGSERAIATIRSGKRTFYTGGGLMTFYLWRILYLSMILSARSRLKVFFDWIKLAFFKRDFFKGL

Ndi1 [2] = molecular target: T1, Ndi1; assay: Inhibition of NADH-ubiquinone-1 oxidoreductase activity of the purified Ndi1; format: biochemical; settings: for IC50: NADH-ubiquinone-1 oxidoreductase activity, purified recombinant Ndi1, 100 µM NADH, pH 6.0, mean ± S.E.M of three independent experiments; for Inhibition mode: inhibition mode for ubiquinone-1, from intersection point in Lineweaver-Burk plots, 100 µM NADH; for Ki: non-linear regression of mixed type inhibition (GraphPad Prism 6), versus ubiquinone-1; for Ki / α (α > 0): mean ± S.D.; for α (α > 0): α of mixed model inhibition fit (αKi = dissociation constant of ternary enzyme-substrate-inhibitor complex)
Experimental: NADH-ubiquinone oxidoreductase activity was measured as described previously. In brief, the reaction was started by adding 100 µM NADH to the enzyme mixture containing 10 ng/mL Ndi1, 50 mM sodium phosphate (pH 6.0) and 1 mM EDTA, which was pre-incubated with various concentrations of ubiquinone-1 for 1 min. […] The concentrations of inhibitors required to obtain the half-maximal inhibition (IC50) were estimated by non-linear regression dose-response curves. The inhibition mode of each inhibitor for ubiquinone-1 was determined by the intersection point in double-reciprocal plots (Fig. 2B–E). To objectively evaluate the inhibition mode, the data of the inhibition kinetics were fitted to the Eq.
This equation provides two dissociation constants, one for the binary enzyme-inhibitor complex (Ki), the other for the ternary enzyme-substrate-inhibitor complex (αKi).

[3] = test system: wild-type and mutant Ndi1; assay: Kinetic parameters of the oxidoreductase activity of wild-type and mutant Ndi1 for ubiquinone-1; format: biochemical, Saccharomyces cerevisiae; settings: NADH fixed at 100 µM; for Km: apparent Km for ubiquinone-1 (2.4–60 µM); for Vmax: ubiquinone-1 as substrate (2.4–60 µM)
Experimental: This unique structure appears to be related to the competitive nature of the inhibition of Ndi1 oxidoreductase activity by stigmatellin. It is therefore hypothesized that L444, I459, R460, and S461, which interact with stigmatellin at the STG-1a site, are also involved in the binding of the substrate ubiquinone (Fig. 5). This hypothesis was evaluated by examining the effects of mutations of the proximal L444 and I459 on the kinetics of the enzymatic reaction of Ndi1. The effect of the mutation of S484, which specifically interacts with stigmatellin at the STG-1b site, was examined as a control. Furthermore, the effects of mutations of W63, P92, A393, Q394, H397, L447, Y482, M485, and L487, which interact with the aromatic head group of stigmatellin at the STG-1a and STG-1b sites, were also examined. Moreover, to investigate the functional role of the STG-2 site in ubiquinone binding, a mutation was also introduced to R479.
NADH-ubiquinone oxidoreductase activity was measured as described previously. In brief, the reaction was started by adding 100 µM NADH to the enzyme mixture containing 10 ng/mL Ndi1, 50 mM sodium phosphate (pH 6.0) and 1 mM EDTA, which was pre-incubated with various concentrations of ubiquinone-1 for 1 min. The decrease in 340 nm absorbance was measured as an indication of the oxidation of NADH (ε = 6.22 mM^−1 cm^−1) with a Shimadzu UV2000 spectrophotometer (Kyoto, Japan). The enzymatic activity obtained with 100 µM NADH and 60 µM ubiquinone-1 in the absence of any inhibitors (100% activity) catalyzed the oxidation of 1,890 μmol NADH/min/mg Ndi1. The concentrations of inhibitors required to obtain the half-maximal inhibition (IC50) were estimated by non-linear regression dose-response curves. The inhibition mode of each inhibitor for ubiquinone-1 was determined by the intersection point in double-reciprocal plots (Fig. 2B–E). To objectively evaluate the inhibition mode, the data of the inhibition kinetics were fitted to the Eq. (1) of mixed model inhibition in the Prism6 software program (GraphPad Software, Inc., La Jolla, CA).1 V=Vmax[S]/[S](1+[I]/αKi)+Km(1+[I]/Ki) […]
To determine the kinetic parameters of wild-type and mutant enzymes for ubiquinone-1, the NADH oxidation rates were measured in a fixed concentration of NADH (100 µM) and different concentrations of ubiquinone-1 (2.4–60 µM). Apparent Km and Vmax values were obtained by fitting a data set of initial velocity versus substrate concentration to the Michaelis-Menten model equation in the Prism6 software program.
Site-directed mutagenesis. The amino acid replacements of Ndi1 were basically performed with PrimeSTAR mutagenesis basal kit (Takara, Japan) using pET16b(NDI1-m) (2) and a synthetic oligonucleotide primer set (Table S2). The mutagenesis of H397 was performed with a QuikChange II XL site-directed mutagenesis kit (Stratagene, CA). Each mutation was confirmed through DNA sequencing (DNA sequencing service, Eurofins). The purification procedure of wild-type and mutant enzymes, used for the determination of the kinetic parameters (Table 2), was basically the same as the above procedure, without the replacement of the detergent from Triton X -100 with DDM. After washing the enzyme with buffer A containing 0.1% Triton X-100 and 15 mM histidine, 0.02% Triton X-100 was added to all buffer as a substitute for DDM. With the exception of 5 mutants containing L444D, I459A, […]
yield of the wild-type enzyme. […]

| Molecule | IC50 (Ndi1 [2]) [nM] | Inhibition mode (Ndi1 [2]) | Ki (Ndi1 [2]) [nM] | α (α > 0) (Ndi1 [2]) | Km [3] [µM] | Vmax [3] [µmol/min/mg] | also measured |
| --- | --- | --- | --- | --- | --- | --- | --- |
| CCCCCCCCCCCc1cc(=O)c2ccccc2n1O [AC0-11, 1-hydroxy-2-undecyl-4(1 H) quinolone] | – | – | – | – | – | – | IC50 (Ndi1 [1]): 200 nM |
| CCCCCCCCCCCCc1cc(=O)c2ccccc2n1O [AC0-12, 1-hydroxy-2-dodecyl-4(1 H) quinolone] | 115 ± 18 | mixed | 14 ± 1.9 | 13.0±11.7 | – | – | – |
| CC(/C=C/[C@@]1(C)[C@H](C)CCC(=O)[C@@H]1C)=C\Cc1c(O)c(Cl)c(C)c(C=O)c1O [Ascochlorin, ascochlorin] | 955 ± 139 | mixed | 728 ± 191 | 2.64±1.87 | – | – | – |
| C/C=C(C)/C=C/C=C/[C@H](OC)[C@@H](C)[C@@H](OC)[C@@H](C)CCc1oc2c(O)c(OC)cc(OC)c2c(=O)c1C [Stigmatellin, stigmatellin] | 107 ± 21 | competitive | 93.9 ± 30.4 | ~6.33×10^20 | – | – | α (α > 0) (Ndi1 [2]; listed as stigmatellin): close to infinity |
| B1 | – | – | – | – | 27.7 ± 1.2 | 0.313 ± 0.007 | – |
| B2 | – | – | – | – | 22.7 ± 1 | 1060 ± 6.1 | – |
| B3 | – | – | – | – | 23.9 ± 2 | 1333 ± 14 | – |
| B4 | – | – | – | – | 30.3 ± 2 | 11.1 ± 0.096 | – |
